Read-outs that look alike come from different tables or passages of the source.
Legend:
BRD4-BD1 = BRD4-BD1 (Homo sapiens (Human), UniProt O60885); assay: AlphaLisa bromodomain binding assay, BRD4-BD1
BRD3-BD1 = BRD3-BD1 (Homo sapiens (Human), UniProt Q15059); assay: AlphaLisa bromodomain binding assay, BRD3-BD1; details: Table 6; read-out: BRD3(1) IC50
Source text: (§1) An AlphaLisa assay was used to observe bromodomain binding and measure IC50s for the compounds disclosed herein. An AlphaLisa assay is a bead-based assay used to detect interactions between bromodomains and polyacetylated histone peptides. Donor and acceptor beads bound to target and ligand are brought into proximity by this protein-protein interaction.
(§2) Equipment Required • 1. […] Plate centrifuge • 3. Plate shaker • 4. […] Single channel and multi-channel pipettes • 6. Microplate reader (Pherastar)
(§3) Stock and Final Assay Concentrations (FAC) • 1. All reference and test compounds are made at a concentration of 10 mM in DMSO. Compounds are serially diluted in DMSO and a FAC starting from 10 μM to 10 point 3 fold serial dilutions is arrived. FAC of DMSO is 1%. • 2. Enzyme stock and FAC
(§4) Biotinylated substrate (Acetylated histone H4, biotinylated substrate—cat no. AS64989-025, Anaspec) stock and FAC
(§5) • 4. Acceptor and donor beads stock and FAC
(§6) Buffers • For the enzyme and substrate dilution following buffer is used (for 50 ml) • HEPES: 50 mM 2.5 ml • NaCl: 25 mM 1.25 ml • DTT: 10 mM 0.05 ml • BSA: 0.1% 0.05 g • MilliQ water: 45.7 ml • For dilution of acceptor and donor beads AlphaLISA 5× epigenetics Buffer Perkin Elmer (Cat: AL008C) is used at 1× concentration.
(§7) Procedure • 1. […] Tap the plate gently • 3. […] Cover with plate sealer • 5. […] Incubate the plate at room temperature for 10 minutes • 7. Add 10 μl of the substrate • 8. Cover with plate sealer • 9. […] Cover with plate sealer • 14. […] Cover with plate sealer • 18.
(§8) The percent inhibition is calculated in the excel analysis template and the IC50 values are subsequently determined using a sigmoidal dose-response curve (variable slope) using GraphPad Prism® 5 software.

BRD4-BD2 = BRD4-BD2 (Homo sapiens (Human), UniProt O60885); assay: AlphaLisa bromodomain binding assay, BRD4-BD2; details: Table 6; read-out: BRD4(2) IC50
Source text: as §1, §2, §3, §4, §5, §6, §7, §8

BRD2-BD1 = BRD2-BD1 (Homo sapiens (Human), UniProt P25440); assay: AlphaLisa bromodomain binding assay, BRD2-BD1; details: Table 6; read-out: BRD2(1) IC50
Sequence of BRD2-BD1 (P25440 74-180): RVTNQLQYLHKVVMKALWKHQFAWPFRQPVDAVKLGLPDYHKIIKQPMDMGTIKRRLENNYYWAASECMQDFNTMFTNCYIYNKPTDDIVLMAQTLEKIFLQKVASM
Source text: as §1, §2, §3, §4, §5, §6, §7, §8

JAK2 = JAK2 (Homo sapiens (Human), UniProt O60674); assay: HTRF kinase assay, JAK2; type: biochemical
Sequence of JAK2 (O60674 whole entry): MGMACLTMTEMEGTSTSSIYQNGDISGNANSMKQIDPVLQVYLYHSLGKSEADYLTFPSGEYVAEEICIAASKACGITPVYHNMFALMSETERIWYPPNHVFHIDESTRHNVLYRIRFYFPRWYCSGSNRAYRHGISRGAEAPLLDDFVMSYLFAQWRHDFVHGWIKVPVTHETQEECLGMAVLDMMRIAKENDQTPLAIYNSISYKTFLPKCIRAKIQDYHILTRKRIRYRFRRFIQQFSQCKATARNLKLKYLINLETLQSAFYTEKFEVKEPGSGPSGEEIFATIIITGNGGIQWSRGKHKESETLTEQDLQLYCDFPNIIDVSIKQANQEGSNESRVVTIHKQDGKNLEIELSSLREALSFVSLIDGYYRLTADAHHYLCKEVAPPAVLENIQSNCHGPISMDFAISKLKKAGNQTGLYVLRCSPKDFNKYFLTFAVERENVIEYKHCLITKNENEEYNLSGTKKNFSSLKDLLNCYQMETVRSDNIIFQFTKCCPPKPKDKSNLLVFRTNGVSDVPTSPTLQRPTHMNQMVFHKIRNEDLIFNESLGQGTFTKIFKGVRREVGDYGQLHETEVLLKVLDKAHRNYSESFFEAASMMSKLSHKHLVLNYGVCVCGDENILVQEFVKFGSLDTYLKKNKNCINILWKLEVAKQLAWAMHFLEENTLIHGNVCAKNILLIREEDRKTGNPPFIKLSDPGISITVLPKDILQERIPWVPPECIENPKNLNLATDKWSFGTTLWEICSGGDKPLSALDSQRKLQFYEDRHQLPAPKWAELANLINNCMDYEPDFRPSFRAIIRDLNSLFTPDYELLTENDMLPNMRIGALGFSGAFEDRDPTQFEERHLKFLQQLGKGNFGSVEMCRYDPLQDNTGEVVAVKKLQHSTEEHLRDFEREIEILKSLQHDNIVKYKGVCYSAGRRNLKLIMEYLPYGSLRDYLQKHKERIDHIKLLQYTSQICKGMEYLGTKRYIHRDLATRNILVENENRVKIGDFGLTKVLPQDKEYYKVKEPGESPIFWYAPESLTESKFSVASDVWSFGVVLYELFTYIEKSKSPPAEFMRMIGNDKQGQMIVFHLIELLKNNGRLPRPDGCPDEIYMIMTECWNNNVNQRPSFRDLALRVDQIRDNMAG

BRDT-BD1 = BRDT-BD1 (Homo sapiens (Human), UniProt Q58F21); assay: AlphaLisa bromodomain binding assay, BRDT-BD1; details: Table 6; read-out: BRDT(1) IC50
Source text: as §1, §2, §3, §4, §5, §6, §7, §8

[1] = Table 6, read-out: BRD4(1) IC50

Sequence of BRD3-BD1 (Q15059 34-140): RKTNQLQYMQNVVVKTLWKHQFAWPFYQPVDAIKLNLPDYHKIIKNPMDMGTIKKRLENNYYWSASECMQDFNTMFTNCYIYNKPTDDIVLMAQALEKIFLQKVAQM

| Structure (SMILES) | IC50 (BRD4-BD1; [1]) [nM] | IC50 (JAK2; Table 6) [nM] | also measured |
| --- | --- | --- | --- |
| COc1cc(Nc2nc(Nc3ccc(N4CCN(C)CC4)cc3)nc3ccccc23)ccc1Cl | 6300 |  | IC50 (BRD3-BD1): 8400 nM; IC50 (BRD4-BD2): 5300 nM; IC50 (BRD2-BD1): 790 nM |
| Cc1cnc(Nc2ccc(N3CCN(C)CC3)cc2)nc1Nc1cccc(NS(=O)(=O)C(C)(C)C)c1 [drawing 205] | 210 | 10 | IC50 (BRD3-BD1): 213 nM; IC50 (BRD4-BD2): 13 nM; IC50 (BRD2-BD1): 373 nM |
| Cc1ccc(Nc2nc(Nc3ccc(N4CCN(C)CC4)cc3)nc3ccccc23)cc1NS(=O)(=O)C(C)(C)C | 470 |  | IC50 (BRDT-BD1): 1800 nM; IC50 (BRD3-BD1): 3200 nM; IC50 (BRD4-BD2): 1130 nM; IC50 (BRD2-BD1): 636 nM |
| CN1CCC(NC(=O)c2ccc(Nc3ncc4ccn(-c5ccc(F)c(NS(=O)(=O)C(C)(C)C)c5)c4n3)cc2F)CC1 [drawing 335] | 94 | 360000 |  |
| CN1CCC(Nc2nc(Nc3ccc4c(c3)N(S(=O)(=O)C(C)(C)C)CC4)c3ccsc3n2)CC1 [drawing 204] | 160 |  | IC50 (BRD3-BD1): 331 nM; IC50 (BRD4-BD2): 293 nM; IC50 (BRD2-BD1): 776 nM |
| Cc1cnc(Nc2ccc(N3CCN(C)CC3)cc2)nc1Nc1cccc(NS(=O)(=O)C(C)(C)C)c1 [drawing 281] | 228 | 10 |  |
| CN1CCN(C(=O)c2ccc(Nc3ncc4ccn(-c5cccc(NS(=O)(=O)C(C)(C)C)c5)c4n3)cc2)CC1 | 771 | 28 |  |
| CN1CCC(c2ccc(Nc3ncc4ccn(-c5cccc(NS(=O)(=O)C6CC6)c5)c4n3)cc2)CC1 | 2720 | 51 |  |
| CC(C)(C)S(=O)(=O)Nc1cccc(-n2ccc3cnc(Nc4ccc5c(c4)CC4CNCCN54)nc32)c1 (centres unmarked) [drawing 404] | 393 | 18 |  |
| CNCCNC(=O)Cc1ccc(Nc2ncc3ccn(-c4ccc(F)c(NS(=O)(=O)C(C)(C)C)c4)c3n2)cc1F | 142 | 251 |  |
| CNCC1CCN(c2ccc(Nc3ncc4c(n3)N(c3cccc(NS(=O)(=O)C(C)(C)C)c3)CC4)cc2F)CC1 | 580 | 9 |  |
| CN(C)C1CCN(c2ccc(Nc3ncc4scc(-c5cccc(NS(=O)(=O)C(C)(C)C)c5)c4n3)cc2)CC1 | 368 | 3 |  |
| CC(C)(C)S(=O)(=O)Nc1cccc(-c2csc3cnc(Nc4cc(F)c5c(c4)CC4CNCCN54)nc23)c1 (centres unmarked) | 766 | 5 |  |
| CN(C)C1CCN(c2ccc(Nc3ncc4ccn(-c5cccc(NS(=O)(=O)C(C)(C)C)c5)c4n3)cc2F)CC1 [drawing 401] | 377 | 4.4 |  |
| CN1CCN(c2ccc(Nc3ncc4ccn(-c5cccc(CNS(=O)(=O)C(C)(C)C)c5)c4n3)cc2)CC1 | 8300 | 3 |  |
| CNc1nc(NC2CCNCC2)nc2c1ccn2-c1cccc(NS(=O)(=O)C(C)(C)C)c1 | 774 | 10000 |  |
| CN1CCN(c2ccc(Nc3ncc4ccn(-c5cccc(NS(=O)(=O)C6CC6)c5)c4n3)cc2)CC1 [drawing 356] | 1800 | 8 |  |
| Cc1cnc(Nc2ccc(N3CCN(C)CC3)cc2)nc1-n1ccc2c1CCNC2=O | 5720 | 5920 |  |
| CN(C)C1CCN(c2ccc(Nc3ncc4ccn(-c5ccc(F)c(NS(=O)(=O)C(C)(C)C)c5)c4n3)cc2F)CC1 [drawing 408] | 63 | 43 |  |
| Cc1cnc(Nc2ccc(N3CCN(C)CC3)cc2)nc1Nc1cccc(NS(=O)(=O)C(C)(C)C)c1 [drawing 292] | 280 | 9 |  |
| CN(C)C1CCN(c2ccc(Nc3ncc4ccn(-c5ccc(F)c(NS(=O)(=O)C(C)(C)C)c5)c4n3)cc2F)CC1 [drawing 373] | 153 | 27 |  |
| CN1CCN(c2ccc(Nc3ncc4ccn(-c5ccc(C#N)c(NS(=O)(=O)C6CC6)c5)c4n3)cc2)CC1 | 1800 | 78 |  |
| CC(C)S(=O)(=O)Nc1cccc(-n2ccc3cnc(Nc4ccc(N5CCN(C)CC5)cc4)nc32)c1 | 1020 | 8.2 |  |
| CC(C)(C)S(=O)(=O)Nc1cc(-n2ccc3cnc(Nc4ccc(N5CCNC(=O)C5)c(F)c4)nc32)ccc1F | 295 | 142 |  |
| Cc1cnc(Nc2ccc(N3CCN(C)CC3)cc2)nc1Nc1cccc(NS(=O)(=O)C(C)(C)C)c1 [drawing 226] | 221 | 7 |  |

| Structure (SMILES) | IC50 (BRD4-BD1; [1]) [nM] | IC50 (JAK2; Table 6) [nM] | also measured |
| --- | --- | --- | --- |
| CN1CCN(c2ccc(Nc3ncc4ccn(-c5cccc(NS(=O)(=O)C(C)(C)C)c5)c4n3)cc2C(N)=O)CC1 | 577 | 72 |  |
| CNC(=O)C1CCN(c2ccc(Nc3ncc4ccn(-c5ccc(F)c(NS(=O)(=O)C(C)(C)C)c5)c4n3)cc2F)CC1 | 735 | 123 |  |
| CN(C)C1CCN(c2ccc(Nc3ncc4ccn(-c5cccc(NS(=O)(=O)C(C)(C)C)c5)c4n3)cc2)CC1 [drawing 75] |  |  | IC50 (BRD4-BD1; Table 5, read-out: BRD4 IC50): 173 nM; IC50 (JAK2; Table 5): 7.3 nM |
| CC(C)(C)S(=O)(=O)Nc1cccc(-n2ccc3cnc(Nc4ccc(C(=O)NC5CCNCC5)cc4)nc32)c1 | 649 | 24 |  |
| CCC1(S(=O)(=O)Nc2cc(-n3ccc4cnc(Nc5ccc(N6CCC(N(C)C)CC6)c(F)c5)nc43)ccc2F)CC1 | 963 | 24 |  |
| CNCCNc1ccc(Nc2ncc3ccn(-c4cccc(NS(=O)(=O)C(C)(C)C)c4)c3n2)cc1 | 407 | 24 |  |
| CN(C)C1CCN(c2ccc(Nc3ncc4ccn(-c5cccc(NS(=O)(=O)C(C)(C)C)c5)c4n3)cc2)CC1 [drawing 368] | 190 | 5 |  |
| CNC1CCN(c2ccc(Nc3ncc4ccn(-c5cccc(NS(=O)(=O)C(C)(C)C)c5)c4n3)cc2F)CC1 | 357 | 6 |  |
| CN1CCC(NC(=O)c2ccc(Nc3ncc4ccn(-c5cccc(NS(=O)(=O)C6CC6)c5)c4n3)cc2F)CC1 | 856 | 13 |  |
| CN(C)C1CCN(c2ccc(Nc3ncc4ccn(-c5cccc(NS(=O)(=O)C6CC6)c5)c4n3)cc2)CC1 | 866 | 14 |  |
| Cc1noc(C)c1-c1cccc(-n2ccc3cnc(Nc4ccc(N5CCN(C)CC5)cc4)nc32)c1 [drawing 285] | 2330 | 3 |  |
| CCC1(S(=O)(=O)Nc2cccc(-n3ccc4cnc(Nc5ccc(N6CCC(N(C)C)CC6)c(F)c5)nc43)c2)CC1 | 1500 | 5 |  |
| CN1CCN2c3ccc(Nc4ncc5ccn(-c6cccc(NS(=O)(=O)C(C)(C)C)c6)c5n4)cc3CC2C1 (centres unmarked) | 366 | 14 |  |
| CN(C)C1CCN(c2ccc(Nc3ncc4ccn(-c5ccc(F)c(NS(=O)(=O)C6(C)CC6)c5)c4n3)cc2F)CC1 | 248 | 20 |  |
| CC(=O)N1CCC(c2ccc(Nc3ncc4ccn(-c5cccc(NS(=O)(=O)C(C)(C)C)c5)c4n3)cc2)CC1 | 10000 | 456 |  |
| CN1CCN(c2ccc(Nc3ncc4ccn(-c5cccc(NS(=O)(=O)c6ccccc6)c5)c4n3)cc2)CC1 [drawing 287] | 10000 | 3 |  |
| CC(C)(C)S(=O)(=O)Nc1cccc(Nc2nc(NC3CCNCC3)nc3sccc23)c1 [drawing 203] | 94 |  | IC50 (BRD3-BD1): 248 nM; IC50 (BRD4-BD2): 309 nM; IC50 (BRD2-BD1): 458 nM |
| CN1CCN(c2ccc(Nc3ncc4ccn(-c5ccc6c(c5)N(S(=O)(=O)C(C)(C)C)CC6)c4n3)cc2)CC1 | 1410 | 32 |  |
| CN(C)C1CCN(c2ccc(Nc3ncc4ccn(-c5ccc(F)c(NS(=O)(=O)C6CC6)c5)c4n3)cc2)CC1 | 1010 | 10 |  |
| CN(C)C1CCN(C(=O)c2ccc(Nc3ncc4ccn(-c5ccc(F)c(NS(=O)(=O)C(C)(C)C)c5)c4n3)cc2F)CC1 | 123 | 170 |  |
| CC(C)(C)S(=O)(=O)Nc1cc(Nc2nc(NC3CCNCC3)nc3ccsc23)ccc1Cl | 3270 | 10000 |  |
| CN1CCN(c2ccc(Nc3nc4c(c(Nc5cccc(NS(=O)(=O)C(C)(C)C)c5)n3)COC4)cc2)CC1 [drawing 206] |  |  | IC50 (BRD3-BD1): 2470 nM; IC50 (BRD4-BD2): 1000 nM; IC50 (BRD2-BD1): 1770 nM |
| CN1CCN(c2ccc(Nc3ncc4ccn(-c5ccc(F)c(NS(=O)(=O)C(C)(C)C)c5)c4n3)cc2)CC1 [drawing 340] | 228 | 188 |  |
| CC1CNCCC1Nc1nc(Nc2ccc3c(c2)N(S(=O)(=O)C(C)(C)C)CC3)c2ccsc2n1 (centres unmarked) | 5800 | 10000 |  |
| CN1CCC(Nc2nc(Nc3ccc4c(c3)N(S(=O)(=O)C(C)(C)C)CC4)c3ccsc3n2)CC1 [drawing 407] | 315 | 10000 |  |

Source: patent US11279703B2, “Fused pyrimidine compounds as BRD4 and JAK2 dual inhibitors and methods for use thereof” (APTOSE BIOSCIENCES INC., priority 2016, dated 2022)
